Data taken from patent US11066412B2, “Substituted pyrrolo[2,1-a]phthalazines and benzo[g]pyrrolo[2,1-a]phthalazines for the treatment of cancer” (Academia Sinica, priority 2017, dated 2021).
Where two headings read alike, the source gives them in different places.

What was measured:
[1] = system: small cell lung cancer H526; experiment: in vitro cytotoxicity, PrestoBlue assay; assay type: cell-based, human; details: read-out: IC50 H526
CD31 = experiment: immunohistochemical staining of tumor xenograft sections, blood vessels; assay type: in vivo, nude mice; details: for blood vessel in tumors (anti-CD31 staining): compared to vehicle control, FIG. 15, panel A; for CD31 marker intensity compared to control: day 9, H526 tumors, FIG. 15, panel B
Protocol: (§1) Tumor xenograft tissue sections on the slides were deparaffinized in xylene twice for 7 min each time. The slides were then rehydrated in graded ethanol, serially from 100% to 70%, followed by rinsing in dH2O. Antigen retrieval was performed using citrate buffer (0.01M, pH 6.0) with incubation in a cooker for 50 mins followed by ambient temperature cooling for 30 min. and then dH2O rinsing. Later slides were subjected to immunohistochemical (IHC) staining with primary antibodies (anti-rabbit CD31 antibody and anti-mouse γ-H2AX antibody) obtained from Abeam® following the manufacturer's instructions (Novolink Polymer Detection system, Leica Biosystems, Wetzlar, Germany).^11 After IHC processing, the slides were scanned digitally using the Panoramic 250 Flash II whole slide scanner and analyzed by 3DHISTECH Panoramic viewer software (3DHISTECH Ltd., Budapest, Hungary).
The density of blood vessels within the tumors was evaluated by immunofluorescence staining using anti-CD31 (a marker of endothelial cells) (FIG. 15, panel A). […] After IHC, slides were scanned by Panoramic 250 Flash II whole slide scanner. The expression of CD31 in tissue sections were determined from 15 different fields of 3 tumor sections and counts were averaged using 3DHISTECH Panoramic viewer software (3DHISTECH Ltd., Budapest, Hungary). […] However, on day 9, CD31 marker intensity was reduced to 4% in tumors treated with BO-2590L or vatalanib compared to control (FIG. 15, panel B). […] On day 9, CD31 marker intensity in cisplatin-treated tumor was 19% of control, which was less extent than BO-2590L or vatalanib.

[2] = body weight changes of xenograft-bearing nude mice; assay type: in vivo; details: H526 xenograft mice
Protocol: (§2) Athymic nude mice bearing the nu/nu gene were obtained from the National Laboratory Animal Center (Taipei, Taiwan). Male nude mice (6 weeks or older weighing 20-24 g or more) were used for all human tumor xenografts. The tested compounds were intravenously administered through tail vein. Tumor volume was determined by measuring the length x width x height (or width) with calipers. The vehicle used for the tested compounds was normal saline (0.9% NaCl isotonic solution). For tumor-bearing nude mice during the course of the experiment, the % body weight changes refer to: (the total weight on reading day/the total weight on day treatment started)×100.

[3] = system: non-small cell lung cancer H460; experiment: in vitro cytotoxicity, PrestoBlue assay; assay type: cell-based, human; details: Table 2
Protocol: (§3) All representative compounds of Formulae (I-A) and (I-B) were first evaluated for their in vitro cytotoxicity to human lymphoblastic leukemia cell line (CCRF-CEM) and its vinblastine-resistant sub-cell line (CCRF-CEM/VBL) (see Table 1).
(§4) After a 72-hr incubation in various concentrations of the newly synthesized compounds, the cytotoxic effects of them to all cell lines were determined by the PrestoBlue®(Invitrogen) assay using a microplate spectrophotometer. Briefly, at the end of treatment, an aliquot of PrestoBlue® solution was added and then cells were incubated at 37° C. for 1-2 hr. The absorbance at 570 and 600 nm was measured with a microplate reader. […] The ICso is defined by the concentration required to inhibit tumor cell growth by 50%. Data represent the mean±STDEV of three to six independent experiments for each compound.

[4] = system: vinblastine-resistant sub-cell line (CCRF-CEM/VBL); experiment: in vitro cytotoxicity, PrestoBlue assay; assay type: cell-based, human
Protocol: as §3, §4

pancreatic cancer PacaS1 = experiment: in vitro cytotoxicity, PrestoBlue assay; assay type: cell-based, human; details: Table 2
Protocol: as §3, §4

colon cancer HCT-116 = experiment: in vitro cytotoxicity, PrestoBlue assay; assay type: cell-based, human; details: Table 2
Protocol: as §3, §4

[5] = system: human lymphoblastic leukemia cell line (CCRF-CEM); experiment: in vitro cytotoxicity, PrestoBlue assay; assay type: cell-based; details: 72-hr incubation; mean ± STDEV of three to six experiments; read-out: IC50 CCRF-CEM
Protocol: as §3, §4

H146 = experiment: in vitro cytotoxicity to SCLC cells; assay type: cell-based, human; details: Table 3
Protocol: as §4

H1417 = experiment: in vitro cytotoxicity to SCLC cells; assay type: cell-based, human; details: Table 3
Protocol: as §4

H82 = experiment: in vitro cytotoxicity to SCLC cells; assay type: cell-based, human; details: Table 3
Protocol: as §4

H211 = experiment: in vitro cytotoxicity to SCLC cells; assay type: cell-based, human; details: Table 3
Protocol: as §4

γ-H2AX = experiment: immunohistochemical staining of tumor xenograft sections, DNA damage marker; assay type: in vivo, nude mice; details: for γ-H2AX in tumors: FIG. 16, panel A; for γ-H2AX signals, quantitative analysis: FIG. 16, panel B
Protocol: as §1, with “3[…]” for “3DHISTECH”, “(3[…]” for “(3DHISTECH”
As BO-2590L is a DNA damaging agent, we thus investigated the effect of BO-2590L on the level of a DNA damage marker, γ-H2AX, via the use of immunohistochemical staining.

[6] = system: human SCLC H526 xenografts; experiment: tumor growth in xenograft-bearing nude mice; assay type: in vivo; details: micelle formulation (Kolliphor/TWEEN 80/PEG400/ethanol/D5W); BO-2768 at 20 mg/kg twice daily; FIG. 12, panel A
Protocol: as §2, with “The vehicle used for the tested compounds was normal saline (0.9% NaCl isotonic solution).” left out
In all experiments, the tumor cells were subcutaneously implanted in nude mice, and the BO-2590L was administered via tail vein when the tumor size reaching approximate 100 mm^3. […]
To confirm the therapeutic activity of BO-2590L, comparative experiments carried out by known chemotherapeutic agents, such as vatanalib and cisplatin, were also performed. Briefly, the H526 xenograft-bearing mice were divided into 4 groups which were treated with vehicle, BO-2590L (10 mg/kg, QD×9), vatalanib (100 mg/kg, QD×9), and cisplatin (4 mg/kg, Q2D×3), respectively. Results are illustrated in FIG. 11.
Results are illustrated in FIGS. 12 and 13.

H526 cells = experiment: single cell electrophoresis (comet) assay; assay type: cell-based; details: FIG. 2
Source text: The data is the average of 3 independent experiments.
To this purpose, cells were encapsulating in a low-melting-point agarose suspension on a microscope slide, then were lysed in neutral or alkaline (pH>13) condition, and electrophoresis of the suspended lysed cells. The term “comet” refers to the pattern of DNA migration through the electrophoresis gel, which often resembles a comet, and the intensity of the comet tail relative to the head reflects the number of DNA breaks.

EA.hy926 cells = experiment: Tube-Formation Assay; assay type: cell-based; details: 24 hr pre-treatment, 48-hr incubation on matrigel; FIG. 4
Protocol: Angiogenesis is the process of generating new blood vessels derived as extensions from the existing vasculature. Performance of vascular behavior or monitoring tube formation can determine whether the compound is capable of interrupting angiogenesis. In this example, whether the compound of formula (I) interrupted angiogenesis was investigated using Tube-Formation Assay.
Briefly, EA.hy926 cells were treated with various concentrations of BO-2590 for 24 hr. After that, cells (5×10^5 cells/well) were suspended in 100 μl medium containing 1% FCS and subsequently seeded onto 96-well plate pre-coated with matrigel 1 h at 37° C. After a 48-hr incubation, tube-formation ability was examined under a phase microscope.

SMILES: N.N.[Cl][Pt][Cl] [Cisplatin, reference compound]
- IC50 ([1]; Table 2): 0.73 ± 0.07 µM
- IC50 ([1]; Table 3): 1.75 ± 0.71 µM
- blood vessel in tumors (anti-CD31 staining) (CD31): significantly reduced blood vessel
- CD31 marker intensity compared to control (CD31): 19%
- deleterious effects on the bodyweight of the test animals ([2]; micelle formulation, FIG. 12, panel B): none
- body weight ([2]; BO-2590L 10 mg/kg for consecutive 9 days, cisplatin 4 mg/Kg, FIG. 11, panel B): severe body weight lost
- IC50 [3]: 5.11 ± 0.22 µM
- IC50 ([4]; 72-hr incubation, mean ± STDEV of three to six experiments, read-out: IC50 CEM/VBL): 8.88 ± 1.86 µM
- resistance factor (IC50 CEM/VBL vs IC50 of the parent cell line) ([4]; number in brackets): 0.54 ×
- IC50 Paca SI (pancreatic cancer PacaS1): 27.04 ± 0.98 µM
- IC50 (colon cancer HCT-116): 9.17 ± 0.67 µM
- IC50 [5]: 16.5 ± 0.9 µM
- IC50 (H146): 10.2 ± 2.99 µM
- IC50 (H1417): 40.8 ± 5.97 µM
- IC50 (H82): 1.75 ± 0.39 µM
- IC50 (H211): 0.78 ± 0.46 µM
- γ-H2AX in tumors (γ-H2AX): remarkably increased in γ-H2AX
- γ-H2AX signals, quantitative analysis (γ-H2AX): time-dependently increased in γ-H2AX signals
- tumor size [6]: slowly increased in size
- DNA damage (comet tail) (H526 cells): inducing DNA breaks in a dose dependent manner

SMILES: Clc1ccc(Nc2nnc(Cc3ccncc3)c3ccccc23)cc1 [vatalanib]
- blood vessel in tumors (anti-CD31 staining) (CD31): significantly reduced blood vessel
- CD31 marker intensity compared to control (CD31): 4%
- tube formation (EA.hy926 cells): suppressed tube formation, but at much higher concentrations
- γ-H2AX in tumors (γ-H2AX): much less level
- γ-H2AX signals, quantitative analysis (γ-H2AX): moderate level of γ-H2AX
